Assay results: US20150087673A1, “METHODS FOR USING AND BIOMARKERS FOR AMPK-ACTIVATING COMPOUNDS” (RIGEL PHARMACEUTICALS, INC., priority 2013, published 2015)

What follows are molecules tested on AMPK (assay: AMPK activation assay (enzyme-linked immunosorbent assay)).
Format: cell-based
Outline: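 Compounds were tested for their capacity to activate the kinase using standard, commercially available kit reagents and procedures.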

SMILES	EC50 [µM]
N#Cc1ccc(CN2CCC(NC(=O)c3ccc(C(=O)N4CCN(S(=O)(=O)c5ccccc5)CC4)cn3)CC2)cc1 [Compound 82, N-(1-(4-cyanobenzyl)piperidin-4-yl)-5-(4-(phenylsulfonyl)piperazine-1-carbonyl)picolinamide]	0.5 to 1
O=C(NC1CCN(Cc2ccccc2)CC1)c1ccc(C(=O)NC2CCN(Cc3ccccc3)CC2)nc1 [Compound 264, N2,N5-bis(1-benzylpiperidin-4-yl)pyridine-2,5-dicarboxamide]	5 to 10
O=C(NC1CCN(Cc2ccccc2)CC1)c1ccc(C(=O)N2CCN(c3ccccc3)CC2)cn1 [Compound 97, N-(1-benzylpiperidin-4-yl)-5-(4-phenylpiperazine-1-carbonyl)picolinamide]	1 to 5
O=C(Nc1ccc(Br)cc1)c1ccc(C(=O)N2CCN(Cc3ccc(F)cc3)CC2)cn1 [Compound 28, N-(4-bromophenyl)-5-(4-(4-fluorobenzyl)piperazine-1-carbonyl)picolinamide]	0.5 to 1
O=C(Nc1ccc(OCc2ccccc2)cc1)c1ccc(C(=O)N2CCN(Cc3ccc(F)cc3)CC2)cn1 [Compound 27, N-(4-benzyloxyphenyl)-5-(4-(4-fluorobenzyl)piperazine-1-carbonyl)picolinamide]	0.5 to 1
CS(=O)(=O)c1ccc(OC2CCN(C(=O)c3ccc(C(=O)NC4CCN(Cc5ccc(N6CCCC6)cc5)CC4)cn3)CC2)cc1 [Compound 230, 6-(4-(4-(methylsulfonyl)phenoxy)piperidine-1-carbonyl)-N-(1-(4-(pyrrolidin-1-yl)benzyl)piperidin-4-yl)nicotinamide]	0.5 to 1
COc1ccc(C(=O)C2CCN(C(=O)c3ccc(C(=O)NC4CCN(Cc5ccc(S(C)(=O)=O)cc5)CC4)cn3)CC2)cc1 [Compound 215, 6-(4-(4-methoxybenzoyl)piperidine-1-carbonyl)-N-(1-(4-(methylsulfonyl)benzyl)piperidin-4-yl)nicotinamide]	> 10
N#Cc1ccc(CN2CCC(NC(=O)c3ccc(C(=O)N4CCC(S(=O)(=O)c5ccc(F)cc5)CC4)nc3)CC2)cc1 [Compound 471, N-(1-(4-cyanobenzyl)piperidin-4-yl)-6-(4-(4-fluorophenylsulfonyl)piperidine-1-carbonyl)nicotinamide]	1 to 5
N#Cc1ccc(CN2CC[C@@H](NC(=O)c3ccc(C(=O)N4CCN(Cc5ccc(F)cc5)CC4)cn3)C2)cc1 [Compound 118, (R)-N-(1-(4-cyanobenzyl)pyrrolidin-3-yl)-5-(4-(4-fluorobenzyl)piperazine-1-carbonyl)picolinamide]	< 0.5
COc1ccc(C(=O)C2CCN(C(=O)c3ccc(C(=O)N[C@@H]4CCN(Cc5csc(C)n5)C[C@@H]4F)cn3)CC2)cc1 [Compound 427, N-((3S,4R)-3-fluoro-1-((2-methylthiazol-4-yl)methyl)piperidin-4-yl)-6-(4-(4-methoxybenzoyl)piperidine-1-carbonyl)nicotinamide]	1 to 5
COc1ccc(C(=O)C2CCN(C(=O)c3ccc(C(=O)NC4CCN(Cc5ccc(C#N)cc5)CC4)nc3)CC2)cc1 [Compound 129, N-(1-(4-cyanobenzyl)piperidin-4-yl)-5-(4-(4-methoxybenzoyl)piperidine-1-carbonyl)picolinamide]	< 0.5
O=C(Nc1ccc(C(=O)N2CCN(Cc3ccc(F)cc3)CC2)cn1)c1ccc(Oc2ccc(F)cc2)nc1 [Compound 177, N-(5-(4-(4-fluorobenzyl)piperazine-1-carbonyl)pyridin-2-yl)-6-(4-fluorophenoxy)nicotinamide]	1 to 5
COc1ccc(OC2CCN(C(=O)c3ccc(C(=O)NC4CCN(Cc5ccc(N6CCCC6)cc5)CC4)nc3)CC2)cc1 [Compound 195, 5-(4-(4-methoxyphenoxy)piperidine-1-carbonyl)-N-(1-(4-(pyrrolidin-1-yl)benzyl)piperidin-4-yl)picolinamide]	< 0.5
N#Cc1cccc(Oc2ccc(NC(=O)c3ccc(C(=O)N4CCN(Cc5ccc(F)cc5)CC4)cn3)cc2)c1 [Compound 56, N-(4-(3-cyanophenoxy)phenyl)-5-(4-(4-fluorobenzyl)piperazine-1-carbonyl)picolinamide]	< 0.5
O=C(Nc1ccc(Oc2ccc(F)cc2)nc1)c1ccc(C(=O)N2CCC(Oc3ccc(S(=O)(=O)C4CC4)cc3)CC2)nc1 [Compound 247, 6-(4-(4-(cyclopropylsulfonyl)phenoxy)piperidine-1-carbonyl)-N-(6-(4-fluorophenoxy)pyridin-3-yl)nicotinamide]	< 0.5
CN1CCN(c2ccc(C(=O)C3CCN(C(=O)c4cnc(C(=O)NC5CCN(Cc6ccc(C#N)cc6)CC5)cn4)CC3)cc2)CC1 [Compound 220, N-(1-(4-cyanobenzyl)piperidin-4-yl)-5-(4-(4-(4-methylpiperazin-1-yl)benzoyl)piperidine-1-carbonyl)pyrazine-2-carboxamide]	< 0.5
COc1ccc(C(=O)C2CCN(C(=O)c3ccc(C(=O)N[C@@H]4CCN(Cc5cc(C)on5)C[C@@H]4F)cn3)CC2)cc1 [Compound 426, N-((3S,4R)-3-fluoro-1-((5-methylisoxazol-3-yl)methyl)piperidin-4-yl)-6-(4-(4-methoxybenzoyl)piperidine-1-carbonyl)nicotinamide]	< 0.5
N#Cc1ccc(O[C@H]2CC[C@@H](NC(=O)c3ccc(C(=O)N4CCN(Cc5ccc(F)cc5)CC4)nc3)CC2)cc1 [Compound 332, N-((cis)-4-(4-cyanophenoxy)cyclohexyl)-6-(4-(4-fluorobenzyl)piperazine-1-carbonyl)nicotinamide]	< 0.5
O=C(NC1CCN(Cc2ccc(F)cc2)CC1)c1ccc(C(=O)N2CCC(Oc3cccc(NC(=O)C4CC4)c3)CC2)nc1 [Compound 432, 6-(4-(3-(cyclopropanecarboxamido)phenoxy)piperidine-1-carbonyl)-N-(1-(4-fluorobenzyl)piperidin-4-yl)nicotinamide]	0.5 to 1
CC(=O)c1ccc(Oc2ccc(NC(=O)c3ccc(C(=O)N4CCN(c5ccc(S(C)(=O)=O)cc5)CC4)nc3)cn2)cc1 [Compound 487, N-(6-(4-acetylphenoxy)pyridin-3-yl)-6-(4-(4-(methylsulfonyl)phenyl)piperazine-1-carbonyl)nicotinamide]	1 to 5
N#Cc1ccc(Oc2ccc(NC(=O)c3ccc(C(=O)N4CCC(C(=O)c5ccc(F)cc5F)CC4)nc3)nc2)cc1 [Compound 469, N-(5-(4-cyanophenoxy)pyridin-2-yl)-6-(4-(2,4-difluorobenzoyl)piperidine-1-carbonyl)nicotinamide]	< 0.5

The remaining lines, values ahead:

EC50 [µM]	SMILES
< 0.5	COc1ccc(C(=O)C2CCN(C(=O)c3ccc(C(=O)NC4CCN(Cc5ccc([N+](=O)[O-])cc5)CC4)cn3)CC2)cc1 [Compound 373, 6-(4-(4-methoxybenzoyl)piperidine-1-carbonyl)-N-(1-(4-nitrobenzyl)piperidin-4-yl)nicotinamide]
< 0.5	CN(C)C(=O)c1ccc(Oc2ccc(NC(=O)c3ccc(C(=O)N4CCC(C(=O)c5ccc(F)cc5F)CC4)nc3)cn2)cc1 [Compound 481, 6-(4-(2,4-difluorobenzoyl)piperidine-1-carbonyl)-N-(6-(4-(dimethylcarbamoyl)phenoxy)pyridin-3-yl)nicotinamide]
< 0.5	CC(C)(C)OC(=O)NCCCc1cc(C(=O)N2CCN(Cc3ccc(F)cc3)CC2)cnc1C(=O)NC1CCN(Cc2ccc(C#N)cc2)CC1 [Compound 290, tert-butyl 3-(2-(1-(4-cyanobenzyl)piperidin-4-ylcarbamoyl)-5-(4-(4-fluorobenzyl)piperazine-1-carbonyl)pyridin-3-yl)propylcarbamate]
< 0.5	N#Cc1ccc(CN2CCC(NC(=O)c3ccc(C(=O)N4CCC(Oc5ccc(SC(F)(F)F)cc5)CC4)nn3)CC2)cc1 [Compound 436, N-(1-(4-cyanobenzyl)piperidin-4-yl)-6-(4-(4-(trifluoromethylthio)phenoxy)piperidine-1-carbonyl)pyridazine-3-carboxamide]
< 0.5	COc1ccc(C(=O)C2CCN(C(=O)c3ccc(C(=O)N[C@@H]4CCN(Cc5ccc(C#N)c(F)c5)C[C@H]4F)cn3)CC2)cc1 (relative stereo) [Compound 354, N-((trans)-1-(4-cyano-3-fluorobenzyl)-3-fluoropiperidin-4-yl)-6-(4-(4-methoxybenzoyl)piperidine-1-carbonyl)nicotinamide]
< 0.5	Cc1ccc(OC2CCN(C(=O)c3ccc(C(=O)NC4CCN(Cc5cc(F)cc(F)c5)CC4)nc3)CC2)cc1 [Compound 293, N-(1-(3,5-difluorobenzyl)piperidin-4-yl)-5-(4-(p-tolyloxy)piperidine-1-carbonyl)picolinamide]
< 0.5	O=C(NC1CCN(Cc2ccc(N3CCCC3)cc2)CC1)c1ccc(C(=O)N2CCC(Oc3ccc(S(=O)(=O)C4CC4)cc3)CC2)nc1 [Compound 248, 6-(4-(4-(cyclopropylsulfonyl)phenoxy)piperidine-1-carbonyl)-N-(1-(4-(pyrrolidin-1-yl)benzyl)piperidin-4-yl)nicotinamide]
< 0.5	O=C(Nc1ccc(-c2ccsc2)cc1)c1ccc(C(=O)N2CCN(Cc3ccc(F)cc3)CC2)cn1 [Compound 62, 5-(4-(4-fluorobenzyl)piperazine-1-carbonyl)-N-(4-(thiophen-3-yl)phenyl)picolinamide]
< 0.5	N#Cc1ccc(OC2CCN(C(=O)c3ccc(C(=O)Nc4ccc(Oc5ccc(F)cc5)nc4)cn3)CC2)cc1 [Compound 326, 6-(4-(4-cyanophenoxy)piperidine-1-carbonyl)-N-(6-(4-fluorophenoxy)pyridin-3-yl)nicotinamide]
< 0.5	CC(=O)Nc1ccc(OC2CCN(C(=O)c3ccc(C(=O)NC4CCN(Cc5ccc(C#N)cc5)CC4)cn3)CC2)cc1 [Compound 366, 6-(4-(4-acetamidophenoxy)piperidine-1-carbonyl)-N-(1-(4-cyanobenzyl)piperidin-4-yl)nicotinamide]
< 0.5	O=C(NC1CCN(Cc2ccccc2)CC1)c1ccc(C(=O)N2CCN(Cc3ccccc3)CC2)cn1 [Compound 72, 5-(4-benzylpiperazine-1-carbonyl)-N-(1-benzylpiperidin-4-yl)picolinamide]
< 0.5	CC(=O)c1ccc(OC2CCN(C(=O)c3ccc(C(=O)NC4CCN(Cc5ccc(C#N)cc5)CC4)nc3)CC2)cc1 [Compound 358, 5-(4-(4-acetylphenoxy)piperidine-1-carbonyl)-N-(1-(4-cyanobenzyl)piperidin-4-yl)picolinamide]
